This experiment concerns the target T1, PnPHR1 (P. neolycopersici photolyase, PN0912) (Erysiphe neolycopersici, UniProt A0A7D3USA5).
T1 construct: GenBank MT277362-MT277364 printed for the three genes together (MT277363 only by order of listing)
T1 sequence (A0A7D3USA5 1-634): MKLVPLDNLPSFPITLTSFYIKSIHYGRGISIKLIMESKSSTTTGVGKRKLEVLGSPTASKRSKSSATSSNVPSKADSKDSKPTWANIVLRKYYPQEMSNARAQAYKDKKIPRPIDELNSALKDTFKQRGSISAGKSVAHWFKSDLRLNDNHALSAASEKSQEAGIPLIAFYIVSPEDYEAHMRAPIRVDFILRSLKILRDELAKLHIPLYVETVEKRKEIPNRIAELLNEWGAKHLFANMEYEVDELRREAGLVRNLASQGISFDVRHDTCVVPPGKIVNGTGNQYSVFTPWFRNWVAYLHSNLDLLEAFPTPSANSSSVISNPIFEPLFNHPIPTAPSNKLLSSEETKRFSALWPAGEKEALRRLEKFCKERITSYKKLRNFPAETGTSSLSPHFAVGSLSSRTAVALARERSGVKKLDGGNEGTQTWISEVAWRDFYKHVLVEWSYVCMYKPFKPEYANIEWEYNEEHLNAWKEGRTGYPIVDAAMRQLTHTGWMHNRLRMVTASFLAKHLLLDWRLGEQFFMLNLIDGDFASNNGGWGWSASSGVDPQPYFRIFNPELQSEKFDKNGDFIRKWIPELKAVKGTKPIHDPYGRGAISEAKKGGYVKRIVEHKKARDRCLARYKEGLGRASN
Nature of the experiment: absorption and fluorescence spectra of purified protein and of chromophore released by heat. The experiment is classed as binding. The note with it: pH 8.0 storage buffer, 22 °C; intrinsic chromophore co-purified from E. coli; identity inferred from emission (excitation 370 nm); no clear absorption maximum.

Data on one molecule can be found in PMC7272715, “Functional Characterization of Pseudoidium neolycopersici Photolyase Reveals Mechanisms Behind the Efficacy of Nighttime UV on Powdery Mildew Suppression” (Frontiers in Microbiology, 2020).

Each structure is given as a SMILES string.

With `Cc1cc2c(cc1C)N(C[C@H](O)[C@H](O)[C@H](O)COP(=O)(O)OP(=O)(O)OC[C@H]1O[C@@H](n3cnc4c(N)ncnc43)[C@H](O)[C@@H]1O)c1[nH]c(=O)[nH]c(=O)c1N2` [FADH^–], the “absorption and fluorescence spectra of purified protein and of chromophore relea” value was “could only reveal the presence of a reduced form of FAD, i.e., FADH^–”.
